Experimental data from ChEMBL document CHEMBL3638916, “Substituted 3-arylsulfonyl-pyrazolo[1,5-A]pyrimidines, serotonin 5-HT6 receptor antagonists and methods for the production and use thereof” (2013).

Legend:
[1] = target: T1, 5-hydroxytryptamine receptor 6 (Homo sapiens, UniProt P50406); assay: Functional Assay: Determination of antagonistic activity of compounds of the general formula 1 towards 5-HT6 receptors. Compounds of the general formula 1 were tested for their ability to prevent 5-HT6 receptors activation by serotonin. HEK 293 cells (cells of human embryo's kidney) with artificially expressed 5-HT6 receptor, activation of which by serotonin leads to increasing the concentration of intracellular cAMP, were used. The level of intracellular cAMP was determined using reagent kit LANCE cAMP (PerkinElmer) according to the method described by the manufacturer of the kit [http://las.perkinelmer.com/content/Manuals/MAN_LANCEcAMP384KitUser.pdf]. Effectiveness of the compounds was estimated by their ability to reduce the level of intracellular cAMP induced by serotonin. Table 4 presents IC50 values for the compounds of general formula 1 in the setting of functional assay for serotonin 5-HT6 receptor inhibition. The data given testify their moderate or high antagonistic activity.; format: cell-based
T1 sequence (P50406 whole entry): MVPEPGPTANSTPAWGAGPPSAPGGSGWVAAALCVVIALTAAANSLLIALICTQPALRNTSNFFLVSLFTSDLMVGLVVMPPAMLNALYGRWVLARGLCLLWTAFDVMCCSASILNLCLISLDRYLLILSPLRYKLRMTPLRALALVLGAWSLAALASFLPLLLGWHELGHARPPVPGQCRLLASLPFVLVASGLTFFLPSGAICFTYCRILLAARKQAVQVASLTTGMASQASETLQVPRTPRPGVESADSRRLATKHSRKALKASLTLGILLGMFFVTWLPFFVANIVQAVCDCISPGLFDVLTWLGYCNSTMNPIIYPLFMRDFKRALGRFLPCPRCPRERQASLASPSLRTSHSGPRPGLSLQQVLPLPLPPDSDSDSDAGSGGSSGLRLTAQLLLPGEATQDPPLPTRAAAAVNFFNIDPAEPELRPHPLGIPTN

[2] = target: T1, 5-hydroxytryptamine receptor 6; assay: Mol. Pharmacol. 43:320-327, 1993].

IC50 [1]: 8.4 µM | IC50 [2]: 0.05 µM
SMILES: CSc1nn2c(C)c(Br)c(C)nc2c1S(=O)(=O)c1ccccc1
